Data as given in ChEMBL document CHEMBL1145457, “Structure-activity studies and analgesic efficacy of N-(3-pyridinyl)-bridged bicyclic diamines, exceptionally potent agonists at nicotinic acetylcholine receptors” (J Med Chem, 2007).
The source made the active and inactive calls. No cut-off for these calls is given here.

Assays:
[1] = target: Neuronal acetylcholine receptor; alpha4/beta2 (Rattus norvegicus, UniProt P09483+P12390); test: Displacement of [3H]cytisine from alpha-4-beta-2 in rat cerebral cortical membrane; type: cell membranes
Sequence of Neuronal acetylcholine receptor; alpha4/beta2 (Rattus norvegicus, UniProt P09483+P12390) (P09483 whole entry): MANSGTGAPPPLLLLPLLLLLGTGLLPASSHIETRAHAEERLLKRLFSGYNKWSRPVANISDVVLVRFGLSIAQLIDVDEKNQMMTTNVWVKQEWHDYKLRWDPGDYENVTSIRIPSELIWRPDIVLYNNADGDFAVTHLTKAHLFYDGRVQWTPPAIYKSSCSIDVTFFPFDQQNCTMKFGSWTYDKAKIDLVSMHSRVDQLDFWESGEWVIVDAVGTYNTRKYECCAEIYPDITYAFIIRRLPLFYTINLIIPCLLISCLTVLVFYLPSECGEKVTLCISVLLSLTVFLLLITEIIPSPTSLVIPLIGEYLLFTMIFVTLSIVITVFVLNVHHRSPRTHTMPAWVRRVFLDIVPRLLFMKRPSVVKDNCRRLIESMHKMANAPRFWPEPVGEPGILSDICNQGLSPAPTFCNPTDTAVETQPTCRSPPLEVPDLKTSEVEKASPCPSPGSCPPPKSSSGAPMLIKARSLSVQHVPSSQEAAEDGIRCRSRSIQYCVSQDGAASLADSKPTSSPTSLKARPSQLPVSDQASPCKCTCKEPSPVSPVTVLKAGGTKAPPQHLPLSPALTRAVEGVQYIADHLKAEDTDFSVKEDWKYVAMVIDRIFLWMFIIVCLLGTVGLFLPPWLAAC
Sequence of Neuronal acetylcholine receptor; alpha4/beta2 (Rattus norvegicus, UniProt P09483+P12390) (P12390 whole entry): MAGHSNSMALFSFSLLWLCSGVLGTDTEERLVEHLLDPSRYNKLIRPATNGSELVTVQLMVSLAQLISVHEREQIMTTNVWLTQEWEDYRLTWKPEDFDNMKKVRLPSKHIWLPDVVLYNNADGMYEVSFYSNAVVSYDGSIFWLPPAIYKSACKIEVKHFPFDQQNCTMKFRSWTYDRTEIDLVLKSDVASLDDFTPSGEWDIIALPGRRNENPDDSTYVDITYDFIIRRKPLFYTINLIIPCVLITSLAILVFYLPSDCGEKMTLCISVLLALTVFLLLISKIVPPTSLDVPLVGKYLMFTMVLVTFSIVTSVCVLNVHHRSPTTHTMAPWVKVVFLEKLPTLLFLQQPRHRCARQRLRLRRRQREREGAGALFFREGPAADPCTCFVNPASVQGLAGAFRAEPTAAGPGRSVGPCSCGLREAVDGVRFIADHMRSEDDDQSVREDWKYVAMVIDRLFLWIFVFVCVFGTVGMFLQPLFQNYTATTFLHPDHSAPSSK

Striatum = test: Agonist activity at rat striatal tissue assessed as dopamine release; type: functional
[2] = target: Neuronal acetylcholine receptor; alpha4/beta2 (Homo sapiens, UniProt P17787+P43681); test: Agonist activity at […] in IMR-32cells assessed as calcium influx by FLIPR assay; type: functional
Sequence of Neuronal acetylcholine receptor; alpha4/beta2 (Homo sapiens, UniProt P17787+P43681) (P17787 whole entry): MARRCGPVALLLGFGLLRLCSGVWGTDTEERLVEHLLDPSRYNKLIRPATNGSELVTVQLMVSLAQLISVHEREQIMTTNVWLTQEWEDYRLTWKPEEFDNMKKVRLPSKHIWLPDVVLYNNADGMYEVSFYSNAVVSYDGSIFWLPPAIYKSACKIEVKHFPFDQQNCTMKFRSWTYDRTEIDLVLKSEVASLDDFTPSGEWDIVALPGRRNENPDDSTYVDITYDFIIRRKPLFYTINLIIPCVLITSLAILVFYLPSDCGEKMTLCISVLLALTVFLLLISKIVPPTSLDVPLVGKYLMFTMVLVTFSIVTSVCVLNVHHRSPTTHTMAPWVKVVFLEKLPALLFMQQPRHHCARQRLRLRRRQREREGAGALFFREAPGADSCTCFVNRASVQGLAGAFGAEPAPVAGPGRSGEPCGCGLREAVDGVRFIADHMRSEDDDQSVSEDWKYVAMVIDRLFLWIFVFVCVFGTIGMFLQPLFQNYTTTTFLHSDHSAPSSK
Sequence of Neuronal acetylcholine receptor; alpha4/beta2 (Homo sapiens, UniProt P17787+P43681) (P43681 whole entry): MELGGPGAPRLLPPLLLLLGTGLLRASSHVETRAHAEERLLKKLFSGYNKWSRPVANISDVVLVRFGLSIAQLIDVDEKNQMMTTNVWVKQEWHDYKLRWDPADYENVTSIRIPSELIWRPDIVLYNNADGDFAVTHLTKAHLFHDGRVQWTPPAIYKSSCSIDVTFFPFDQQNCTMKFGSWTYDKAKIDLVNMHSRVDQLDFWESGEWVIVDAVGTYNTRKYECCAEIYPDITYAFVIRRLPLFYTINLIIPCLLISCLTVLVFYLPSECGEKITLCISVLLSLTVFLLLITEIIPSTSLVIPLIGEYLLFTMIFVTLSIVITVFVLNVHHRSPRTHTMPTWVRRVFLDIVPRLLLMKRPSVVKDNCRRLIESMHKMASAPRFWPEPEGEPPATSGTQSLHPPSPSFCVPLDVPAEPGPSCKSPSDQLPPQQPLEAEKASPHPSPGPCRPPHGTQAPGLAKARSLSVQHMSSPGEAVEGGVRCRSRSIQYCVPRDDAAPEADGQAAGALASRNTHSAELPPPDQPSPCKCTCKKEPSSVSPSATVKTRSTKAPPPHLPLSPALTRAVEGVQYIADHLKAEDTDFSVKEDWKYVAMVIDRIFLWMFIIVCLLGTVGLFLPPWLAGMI

Mus musculus [3] = test: Effect on urination in mouse at 6.2 umol/kg, ip; type: functional, organism-based
Mus musculus [4] = test: Effect on hypolocomotion in mouse at 6.2 umol/kg, ip; type: functional, organism-based
Mus musculus [5] = test: Effect on head weaving in mouse at 6.2 umol/kg, ip; type: functional, organism-based
Rattus norvegicus [6] = test: Antinociceptive effect on rat assessed as reduction of flinches up to 1.9 umol/kg, ip; type: functional, organism-based
Rattus norvegicus [7] = species on record: Rattus norvegicus; test: Reversal of mechanically-stimulated hyperalgesia in spinal nerve ligated rat chung model; type: functional, organism-based
Mus musculus [8] = test: Induction of seizure in mouse at 62 umol/kg, ip; type: functional, organism-based
Rattus norvegicus [9] = test: Antinociceptive effect on rat assessed as increased latency to paw withdrawal in response to noxious thermal stimulus at 0.62 umol/kg, ip; type: functional, organism-based
[10] = Drug level in Sprague-Dawley rat brain at 6.2 umol/kg, ip after 30 mins; type: ADME, organism-based; conditions: read-out: Drug uptake
Rattus norvegicus [11] = test: Antinociceptive effect in rat assessed as reduction of flinches up to 6.2 umol/kg, ip; type: functional, organism-based
[12] = Drug levels in Sprague-Dawley rat plasma at 6.2 umol/kg, ip after 15 mins; type: ADME, organism-based
[13] = Drug level in Sprague-Dawley rat plasma at 6.2 umol/kg, ip after 60 mins; type: ADME, organism-based
Rattus norvegicus [14] = test: Effect on reversal of allodynia in rat chug model at 19 umol/kg, ip; type: functional, organism-based
[15] = Drug level in Sprague-Dawley rat at 6.2 umol/kg, ip after 60 mins; type: ADME, organism-based; conditions: brain, read-out: Drug uptake
[16] = Drug level in Sprague-Dawley rat plasma at 6.2 umol/kg, ip after 30 mins; type: ADME, organism-based
[17] = Drug level in Sprague-Dawley rat brain at 6.2 umol/kg, ip after 15 mins; type: ADME, organism-based; conditions: read-out: Drug uptake
[18] = Rattus norvegicus, Striatum, read-out: EC50
[19] = Rattus norvegicus, Striatum, read-out: Log EC50 (converted)

Compound	Ki ([1]; read-out: Ki) [nM]	EC50 ([2]; read-out: EC50) [nM]	other results
O=C(c1ccc(Cl)nc1)N1C[C@H]2C[C@@H]1CN2	590	–	–
Fc1ccc(N2C[C@@H]3C[C@H]2CN3)cn1	0.17	3700	Ki ([1]; read-out: Log Ki (converted)): 0.141 nM; Log EC50 (Striatum): -7.72; EC50 (Striatum; read-out: EC50): 19 nM
Oc1cc(N2C[C@@H]3C[C@H]2CN3)cnc1Cl	1.6	35000	Log EC50 (Striatum): -7.3; EC50 (Striatum; read-out: EC50): 51 nM
c1ccc2ncc(N3C[C@@H]4C[C@H]3CN4)cc2c1	17	–	–
Clc1ccc(N2CC3CC2CCN3)cn1 (stereo not drawn)	2.8	7440	–
NC(=O)c1cncc(N2C[C@@H]3C[C@H]2CN3)c1	24	25000	–
N#Cc1cncc(N2C[C@H]3C[C@@H]2CN3)c1	0.027	980	Log EC50 (Striatum): -9.1; EC50 (Striatum; read-out: EC50): 0.8 nM
c1cncc(N2C[C@H]3C[C@@H]2CN3)c1	0.018	370	–
O=C1C2CC(CN2)N1c1ccc(Cl)nc1 (stereo not drawn)	> 10000	–	Ki ([1]; read-out: Log Ki (converted)): > 100000 nM
COc1ccc(N2C[C@H]3C[C@@H]2CN3)cn1	0.25	850	–
c1cncc(N2CC3CNC(C3)C2)c1 (stereo not drawn)	0.047	72	–
N#Cc1cncc(N2C[C@@H]3C[C@H]2CN3)c1	1.7	24000	Ki ([1]; read-out: Log Ki (converted)): 1.62 nM; Log EC50 (Striatum): -7.64; EC50 (Striatum; read-out: EC50): 23 nM
c1ccc(N2C[C@@H]3C[C@H]2CN3)nc1	980	–	–
C[N+]1(C)CC2CC1CN2c1ccc(Cl)nc1 (stereo not drawn)	0.2	1500	–
Clc1ccc(N2C[C@@H]3C[C@H]2CN3)cn1	0.1	450	Activity (Mus musculus [3]): Active; Activity (Mus musculus [4]): Active; Activity (Mus musculus [5]): Active; Activity (Rattus norvegicus [6]): Active; Log EC50 (Striatum): -8.28; EC50 (Striatum; read-out: EC50): 5.3 nM; Activity (Rattus norvegicus [7]): Active; Activity (Mus musculus [8]): Active; Activity (Rattus norvegicus [9]): Active
Oc1cncc(N2C[C@H]3C[C@@H]2CN3)c1	0.035	2600	Log EC50 (Striatum): -8.24; EC50 (Striatum; read-out: EC50): 5.7 nM
CN1CCC[C@H]1c1cccnc1 [NICOTINE]	–	–	EC50 (Striatum; [18]): 200 nM; EC50 (Striatum; [19]): 200 nM
Oc1cncc(N2C[C@@H]3C[C@H]2CN3)c1	4	> 100000	Log EC50 (Striatum): -7.6; EC50 (Striatum; read-out: EC50): 28 nM
Clc1ccc(C2CC3CCC2N3)cn1 (stereo not drawn) [EPIBATIDINE]	–	–	EC50 (Striatum; [18]): 0.83 nM; EC50 (Striatum; [19]): 0.832 nM

Compound	Ki ([1]; read-out: Ki) [nM]	EC50 ([2]; read-out: EC50) [nM]	other results
COc1cncc(N2C[C@@H]3C[C@H]2CN3)c1	0.53	30000	Log EC50 (Striatum): -7.09; EC50 (Striatum; read-out: EC50): 81 nM
c1cncc(CN2C[C@H]3C[C@@H]2CN3)c1	56	–	–
NC(=O)c1cncc(N2C[C@H]3C[C@@H]2CN3)c1	0.83	28000	EC50 (Striatum; [18]): 30 nM; EC50 (Striatum; [19]): 30.2 nM
Oc1cc(N2C[C@H]3C[C@@H]2CN3)cnc1Cl	0.17	3200	concentration at 0.5 h [10]: 22 ng/g; Activity (Rattus norvegicus [11]): Active; concentration at 0.25 h [12]: 458 ng/mL; concentration at 1 h [13]: 131 ng/mL; Activity (Rattus norvegicus [14]): inactive; concentration at 1 h [15]: 10 ng/g; Log EC50 (Striatum): -8.42; EC50 (Striatum; read-out: EC50): 3.8 nM; concentration at 0.5 h [16]: 289 ng/mL; concentration at 0.25 h [17]: 29 ng/g
CCN1C[C@@H]2C[C@H]1CN2c1ccc(Cl)nc1	34	–	–
c1ncc(N2C[C@@H]3C[C@H]2CN3)cn1	0.95	–	–
Clc1ccc(N2C[C@H]3C[C@@H]2CN3)cn1	0.018	140	Log EC50 (Striatum): -8.6; EC50 (Striatum; read-out: EC50): 2.5 nM
Cc1ccc(N2C[C@@H]3C[C@H]2CN3)cn1	1.6	1700	EC50 (Striatum; [18]): 350 nM; EC50 (Striatum; [19]): 347 nM
Clc1cc(N2CC3CC2CN3)ncn1 (stereo not drawn)	52	–	–
Cc1cc(N2C[C@@H]3C[C@H]2CN3)nnc1Cl	3.8	–	–
O=S(=O)(c1cnc(Cl)c(Br)c1)N1C[C@H]2C[C@@H]1CN2	17	–	–
c1cncc(N2CC3CCC2CN3)c1 (stereo not drawn)	0.02	280	–
c1cnc2c(N3C[C@H]4C[C@@H]3CN4)csc2c1	280	–	–
FC(F)(F)c1cncc(N2C[C@H]3C[C@@H]2CN3)c1	490	–	–
c1cnnc(N2C[C@@H]3C[C@H]2CN3)c1	120	–	–
NCc1cncc(N2C[C@@H]3C[C@H]2CN3)c1	140	20000	–
Clc1ccc(N2C[C@@H]3C[C@H]2CN3)cc1	22	–	–
c1cncc(N2CC3CNCC2C3)c1 (stereo not drawn)	0.065	1600	–
Nc1ccc(N2CC3CC2CN3)cn1 (stereo not drawn)	20	31000	–

Compound	Ki ([1]; read-out: Ki) [nM]	EC50 ([2]; read-out: EC50) [nM]	other results
COc1cncc(N2C[C@H]3C[C@@H]2CN3)c1	0.12	5700	Log EC50 (Striatum): -7.7; EC50 (Striatum; read-out: EC50): 20 nM
c1csc(N2C[C@@H]3C[C@H]2CN3)n1	2300	–	–
O=[N+]([O-])c1ccc(N2C[C@@H]3C[C@H]2CN3)cc1	67	–	–
CN1C[C@@H]2C[C@H]1CN2c1ccc(Cl)nc1	1.3	–	–
Clc1nnc(N2C[C@@H]3C[C@H]2CN3)c2ccccc12	1900	–	–
c1cncc(N2C[C@@H]3C[C@H]2CN3)c1	0.15	6400	EC50 (Striatum; [18]): 138 nM; EC50 (Striatum; [19]): 138 nM
Fc1ccc(N2C[C@H]3C[C@@H]2CN3)cn1	0.028	160	Log EC50 (Striatum): -6.7; EC50 (Striatum; read-out: EC50): 1.6 nM; EC50 ([2]; read-out: Log EC50 (converted)): 1.62 nM
O=[N+]([O-])c1ccc(N2C[C@@H]3C[C@H]2CN3)cn1	110	11000	–
Clc1cc(N2C[C@H]3C[C@@H]2CN3)cnc1Cl	0.018	550	EC50 (Striatum; [18]): 16 nM; EC50 (Striatum; [19]): 16.2 nM
Fc1cccc(N2C[C@@H]3C[C@H]2CN3)c1	250	–	–
c1cnc2cc(N3C[C@H]4C[C@@H]3CN4)sc2c1	0.83	–	–
Cc1cc(N2C[C@H]3C[C@@H]2CN3)cnc1Cl	0.014	180	–
O=[N+]([O-])c1cccc(N2C[C@@H]3C[C@H]2CN3)c1	600	–	–
COc1cc(N2C[C@H]3C[C@@H]2CN3)cnc1Cl	0.1	4300	–
Cc1nsc(N2C[C@H]3C[C@@H]2CN3)n1	350	–	–
c1ccc(N2C[C@@H]3C[C@H]2CN3)cc1	1000	–	–
Cc1cc(N2C[C@@H]3C[C@H]2CN3)sn1	4.9	–	–
c1ccc2nc(N3C[C@@H]4C[C@H]3CN4)ccc2c1	4000	–	–
